Reference: publication PMC10675445, “Enolase Inhibitors as Early Lead Therapeutics against Trypanosoma brucei” (Pathogens, 2023)
Where two headings read alike, the source gives them in different places.

How the values were obtained:
HsENO2 = system: HsENO2; design: method as in PMID 33230295; conditions: cited from earlier work; for IC50: included for comparative purposes, source not given
T. brucei BSF parasites = assay: BSF viability assay (CellTiter Blue); format: cell-based, Trypanosoma brucei brucei
Experimental: (§1) Trypanosome growth, viability assays, and Western blotting—T. brucei brucei 90-13 BSF parasites were cultured in HMI-9 medium supplemented with 10% heat-inactivated FBS and 10% Serum Plus (Sigma-Aldrich, St. Louis, MO, USA) at 37 °C in 5% CO2, while T. brucei brucei PF 29-13 were cultured in SDM-79 supplemented with 10% heat-inactivated FBS [16]. For BSF viability assays, parasites (1 × 10^5/mL) were seeded into 384-well black polystyrene plates in the presence of a compound or equivalently diluted carrier. CellTiter Blue reagent (Promega, Madison, WI, USA) was added after two days of culture, the plates incubated an additional 1 h, and fluorescence emission at A585 measured after excitation at A546. For PF viability assays, 1 × 10^6 parasites in standard medium, or 5 × 10^6 parasites in glucose-free medium, were introduced into black 96-well plates in standard culture medium in the presence of a compound or carrier, with CellTiter Blue reagent added after 48 h of culture. Plates were incubated for 1 h and fluorescence emission scored as described for BSF. Fluorescence values were used to calculate percent cell growth inhibition (based on controls) for each concentration of compound tested. Averages of the triplicates were calculated and fit to dose-response curves for the determination of EC50 values, using Prism 9.0 (GraphPad Software, San Diego, CA, USA).

T. brucei ENO (TbENO) = T. brucei ENO (TbENO) (Trypanosoma brucei brucei, UniProt Q38BV6); assay: Recombinant TbENO coupled enzyme assay; format: biochemical
Chain of T. brucei ENO (TbENO) (Q38BV6 entry or part of it): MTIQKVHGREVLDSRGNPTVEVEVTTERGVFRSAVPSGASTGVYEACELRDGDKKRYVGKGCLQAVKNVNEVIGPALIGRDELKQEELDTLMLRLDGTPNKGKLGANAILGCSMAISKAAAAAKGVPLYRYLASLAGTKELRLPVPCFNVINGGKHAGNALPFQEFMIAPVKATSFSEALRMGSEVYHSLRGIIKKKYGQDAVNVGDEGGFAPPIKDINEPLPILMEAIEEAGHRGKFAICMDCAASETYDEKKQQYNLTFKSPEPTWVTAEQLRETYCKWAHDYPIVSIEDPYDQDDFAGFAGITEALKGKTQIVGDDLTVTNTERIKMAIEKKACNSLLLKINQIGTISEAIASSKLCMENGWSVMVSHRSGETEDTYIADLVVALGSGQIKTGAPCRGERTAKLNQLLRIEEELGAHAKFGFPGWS
Experimental: Recombinant ENO and ENO Assays—Recombinant TbENO was expressed and purified using an approach modified from the purification of another trypanosome glycolytic enzyme. Briefly, the full-length open reading frame was cloned from Trypanosoma brucei brucei (a 427 strain) genomic DNA into the bacterial expression vector pQE-30 (Qiagen, MD, USA). This plasmid was transformed into M15pREP cells and protein expression induced with 0.25 mM isopropyl-b-d-1-thiogalactopyranoside (IPTG) overnight at 37 °C. Protein was purified on Ni-NTA agarose (Qiagen) as described.
ENO assays were performed in triplicate using a coupled reaction to measure enzyme activity. In short, enzyme (~50 nM) in assay buffer (100 mM HEPES, pH 8.0, 3.3 mM MgSO4, 120 mM KCl, 1.75 mM ADP, 1 U of pyruvate kinase/lactate dehydrogenase, and 0.4 mM NADH) was added to black 96-well plates. Reactions were initiated by the addition of substrate (3.75 mM 2-PG) and the rate of reduction in fluorescence emission at A460 was measured after excitation at A360 to monitor NAD^+ production. Assays were scored on a Biotek Synergy H1 microplate reader and kinetic analyses were performed with Prism 9.0 (GraphPad Software, San Diego, CA, USA) using the Michaelis–Menten model. To assess the impact of different pH on enzyme activity, the HEPES […] in the standard buffer was replaced with Good’s buffers 2-morpholinoethanesulfonic acid (MES, pH 6.5), HEPES (pH 7.0 to pH 8.5), or sodium borate (pH 9.0). For assays involving inhibitors, compounds (in DMSO) were incubated with the enzyme in assay buffer (pH 8.0) for 15 min prior to initiation of the reaction. All assays were performed in triplicate with vehicle control (DMSO) included.

ENO1-deficient tumors = system: ENO1-deficient tumors; design: method as in PMID 33230295; conditions: rodent model; cited from earlier work
[1] = design: method as in PMID 33230295; conditions: mammalian animal models, including non-human primates; cited from earlier work
T. brucei PF parasites = assay: PF viability assay (CellTiter Blue); format: cell-based; conditions: Trypanosoma brucei, 48 h
Experimental: as §1

PF parasites (PF 29-13) = assay: Imaging of PF cellular and glycosomal morphology; format: cell-based, Trypanosoma brucei; conditions: 6 µM, 2.5 h
Excerpt: (§2) The following supporting information can be downloaded at: https://www.mdpi.com/article/10.3390/pathogens12111290/s1, Figure S1: Multiple sequence alignment of TbENO, HsENO2, and NfENO. Amino acid sequences of TbENO (Tb927.10.2890), HsENO2 (ENOG, P09104), and NfENO (NfTY_054390) were aligned using Clustal Omega (EMBL-EBI). Similar amino acids are indicated with (:) and absolute conservation of residues by (*). Figure S2: BSF morphology rapidly changes upon POMHEX treatment. For imaging, BSF (427 strain parasites) parasites bearing the transgene pXS6 AldoPTSeYFP (left) or PF pXS2 AldoPTSeYFP (PF 29-13) (right) for constitutive glycosomal expression of eYFP were cultured for 2.5 hr in DMSO vehicle or POMHEX (at 6 µM, a concentration equivalent to 10-fold the EC50 value). Cells were then washed, fixed (4% paraformaldehyde), and imaged on a on Leica 8 DMi8 microscope. Scale bar = 10 µm. Figure S3: The levels of the glycosome-resident protein aldolase change in response to POMHEX treatment. […] Western blots were visualized on a Analytik Jena UVP ChemStudio imager with Visual works imaging software and bands were quantitated using ImageJ. Percent change in aldolase amount was scored after normalization to loading by quantification of a prominent Coomassie-stained band (likely VSG). […] Cell viability was scored by propidium iodide exclusion, followed by analysis of 10,000 cells in the PC5.5 channel.

BSF parasites [2] = assay: Trypanosome ROS assay (flow cytometry); format: cell-based, Trypanosoma brucei; conditions: 30 min, POMHEX 50 or 100 µM, H2O2 125 µM
Experimental: BSF parasites (5 × 10^6 cells) were pelleted (800 × g, 10 min) then resuspended in PBS supplemented with 0.1% glucose (PBSg). Samples were treated with either ROS stain (Total Reactive Oxygen Species (ROS) Assay Kit 520 nm, Invitrogen) or DMSO and then incubated at 37 °C in 5% CO2 for 60 min. Samples were then treated with 125 μM H2O2, 50 μM POMHEX, 100 μM POMHEX, or equal volume DMSO, incubated for 30 min, and analyzed on a CytoFLEX flow cytometer (Beckman Coulter). Events (10,000) were recorded and analyzed using FCSexpress software. Median fluorescence intensity (MFI) was calculated, and Welch’s t-tests were performed (ns: not statistically significant, * p < 0.05, ** p < 0.01, *** p < 0.001). Each experiment was performed with biological triplicates in technical triplicates.

T. brucei aldolase = assay: Aldolase western blot of BSF lysates; format: cell-based, Trypanosoma brucei; conditions: POMHEX 6 µM, 2.5 h
Excerpt: as §2

BSF parasites [3] = assay: Propidium iodide exclusion viability (flow cytometry); format: cell-based, Trypanosoma brucei; conditions: 30 min
Experimental: To monitor apoptotic-like responses, 5 × 10^6 parasites were collected, resuspended in fresh media containing 125 μM H2O2, 5 μM POMHEX, 50 μM POMHEX, 100 μM POMHEX, or equal volume of DMSO, and incubated at 37 °C in 5% CO2 for 30 min. Cells were washed once in PBS, resuspended in binding buffer (10 mM HEPES/NaOH, pH 7.4, 140 mM NaCl, 2.5 mM CaCl2) with propidium iodide (Enzo Life Sciences) and incubated for 15 min, followed by cytometry. Each experiment was performed with technical triplicates of biological triplicates. Median fluorescence intensity (MFI) was calculated, and Welch’s t-tests were performed (ns: not statistically significant, * p < 0.05, ** p < 0.01, *** p < 0.001).

[4] = system: BSF parasites (BSF pXS6-eYFP-PTS1); assay: Imaging of BSF cell morphology; format: cell-based, Trypanosoma brucei; conditions: 6 µM, 2.5 h
Excerpt: as §2

[5] = Trypanosoma brucei, 48 h, BSF, two days of culture, read-out: T. brucei BSF EC50
[6] = recombinant TbENO ~50 nM, pH 8.0, 15 min preincubation, 3.75 mM 2-PG, read-out: TbENO IC50
[7] = Trypanosoma brucei, 48 h, read-out: T. brucei BSF EC50, BSF, two days of culture

EC50 (T. brucei BSF parasites; [5]) | IC50 (T. brucei ENO (TbENO); [6]) | SMILES | IC50 (HsENO2) | EC50 (T. brucei BSF parasites; [7]) | IC50 (T. brucei ENO (TbENO)) | also measured
> 10 µM | > 10 µM | O=C1C(P(=O)(O)O)CCCCN1OCc1ccccc1 (stereo not drawn) [Benzyl-HEPTA] | > 10 µM | – | – | –
> 10 µM | > 10 µM | O=C1C(P(=O)(O)O)CCN1OCc1ccccc1 (stereo not drawn) [Benzyl-deoxy-SF2312] | > 10 µM | – | – | activity against TbENO at 10 µM (T. brucei ENO (TbENO); at 10 µM): not active
> 10 µM | > 10 µM | O=C1C(P(=O)(O)O)CCCN1OCc1ccccc1 (stereo not drawn) [BenzylHEX] | > 10 µM | – | – | activity against ENO2 (in words) (HsENO2): not active
– | – | O=C1C(P(=O)(O)O)CCN1O (stereo not drawn) [Deoxy-SF2312, (1-hydroxy-2-oxopyrrolidin-3-yl) phosphonic acid] | 0.1 ± 0.04 µM | > 10 µM | 0.6 ± 0.23 µM | –
– | – | O=C1C(P(=O)(O)O)CCCCN1O (stereo not drawn) [HEPTA, (1-hydroxy-2-oxoazepan-3-yl) phosphonic acid] | 5.8 ± 0.88 µM | > 10 µM | > 10 µM | activity against TbENO (in words) (T. brucei ENO (TbENO)): not active
– | – | O=C1C(P(=O)(O)O)CCCN1O (stereo not drawn) [HEX, (1-hydroxy-2-oxopiperidin-3-yl) phosphonic acid] | 0.36 ± 0.04 µM | 10 ± 1 µM | 2.1 ± 1.1 µM | efficacy against ENO1-deficient tumors (ENO1-deficient tumors): curative; tolerability [1]: extremely well-tolerated; EC50 (T. brucei BSF parasites; Trypanosoma brucei, read-out: T. brucei BSF EC50, HEX with formaldehyde, with 2 molar equivalent formaldehyde): 10 ± 1.4 µM; EC50 (T. brucei BSF parasites; read-out: T. brucei BSF EC50, BSF, two days of culture): > 10 µM
– | – | CC(C)(C)C(=O)OCOP(=O)(OCOC(=O)C(C)(C)C)C1CC(O)N(O)C1=O (stereo not drawn) [POMSF] | – | – | – | EC50 (T. brucei BSF parasites; BSF, two days of culture, read-out: T. brucei BSF EC50): 0.45 ± 0.1 µM
– | – | OO [hydrogen peroxide, reference compound] | – | – | – | ROS levels compared to untreated parasites (BSF parasites [2]): increase in reactive species

SMILES | EC50 (T. brucei BSF parasites; [5]) | IC50 (T. brucei ENO (TbENO); [6]) | IC50 (HsENO2) | EC50 (T. brucei BSF parasites; [7]) | IC50 (T. brucei ENO (TbENO)) | also measured
CC(C)(C)C(=O)OCOP(=O)(OCOC(=O)C(C)(C)C)C1CCCN(O)C1=O (stereo not drawn) [POMHEX] | 0.61 ± 0.08 µM | 2.8 ± 0.64 µM | > 10 µM | – | – | EC50 (T. brucei PF parasites; PF parasites cultured in glucose-free medium, read-out: PF EC50, glucose-free medium): 5 ± 0.14 µM; EC50 (T. brucei PF parasites; PF parasites cultured in standard (5 mM) glucose, read-out: PF EC50, standard glucose): 0.81 ± 0.07 µM; PF cellular and glycosomal morphology (PF parasites (PF 29-13)): remained largely unchanged; ROS levels compared to untreated parasites (BSF parasites [2]): significant reduction in ROS levels; decrease of aldolase levels vs vehicle-treated cells (T. brucei aldolase): 28%; range of aldolase reduction in three other replicates (T. brucei aldolase): 28-55%; cell death by PI exclusion, 50 µM (BSF parasites [3]; 50 µM): did not lead to increased cell death; cell death by PI exclusion, higher concentration (BSF parasites [3]; 100 µM): increased cell death; BSF cell morphology [4]: rapid change to overall cell shape
